How the values were obtained:
NCI-ES-0808 = assay: Cell growth / viability assay; type: cell-based
HEKa cells [1] = assay: Real-time PCR Neuroscience and Ion Channels array, calcitriol-treated HEKa; type: cell-based, human; conditions: 0.1 μg/mL; for KCNB2 mRNA regulation pattern: full cell: upregulated until 24 hours
Procedure: (§1) Changes in mRNA levels were evaluated using real-time PCR quantification to assess mRNA levels in preselected subsets containing 80 pathway specific targets (see Appendix). The PCR array analysis utilized two groups of genes—those related to Heat Shock Proteins (SABiosciences), and those related to Neuroscience Ion Channels and Transporters (SABioscience). Cell culture: Primary human epidermal keratinocytes (HEKa) were maintained in Epilife Medium (Cascade Biologics, Inc., Portland Oreg.) along with Human Keratinocyte Growth Supplement (Cascade Biologics, Inc., Portland Oreg.). […] D3 treatment of HEKa cells: […] Vehicle control group of cells were treated with 5 mL media containing 1 μL of ethanol. Cells were harvested 3, 6, 16, 24, 48, or 72 hours after the start of the treatment. RNA isolation: Cells were lysed for RNA isolation at different treatment times using the RNeasy Mini kit (Qiagen, Inc., Valencia Calif.) following the manufacturer's instructions. RNA was quantified by measuring optical density at 260 nm. First Strand Synthesis: […] Real-time PCR: Products from the first strand synthesis were diluted with water, mixed with the SYBR green master mix (SABiosciences., Frederick Md.) and loaded onto PCR arrays. Real time PCR was run on the PCR Arrays (Heat Shock Protein Arrays, and Neuroscience and Ion Channel Arrays) (SABiosciences, Frederick Md.) on a Biorad CFX96. Data analyses were performed using the PCR array data analysis software available on the SABiosciences website.

HepG2 = assay: Cell growth / viability assay; type: cell-based
guinea pigs = assay: Skin sensitization study; type: in vivo, guinea pig; conditions: calcitriol at 5.7 μg/g, topical patch induction and challenge
Procedure: Induction phase. […] The induction exposure was repeated at the same skin site once a week for 2 weeks. The vehicle and positive control groups composed of 5 male and 5 female guinea pigs, each of which were exposed in the same manner as the treatment group to propylene glycol/anhydrous ethanol or hexylcinnamic aldehyde (a known mild to moderate skin-sensitizer), respectively. Skin reactions were scored and recorded at approximately 24 hours after patch removal during the induction phase. After the last induction exposure, the animals remained untreated for two weeks before the challenge exposure.
Challenge phase. The challenge exposure was conducted two weeks after the final topical induction. The test article was topically applied to the Vehicle Control and Test Group at the concentration determined to be non-irritating in the irritation screen. The Vehicle Control Group was also challenged with the Vehicle. The Positive Control Groups received the positive control article. The challenge application sites were scored at approximately 24 and 48 hours after patch removal.

SkBr-3 = assay: Cell growth / viability assay; type: cell-based
PaCa2 = assay: Cell growth / viability assay; type: cell-based
HEKa cells [2] = assay: Real-time PCR Heat Shock Protein array, calcitriol-treated HEKa; type: cell-based, human; conditions: 0.1 μg/mL calcitriol, two independent experiments
Procedure: as §1

[3] = tested on: female C57BL/6 adolescent mice; conditions: topical calcitriol; cited from earlier work
HEKa cells [4] = assay: Pretreatment of cells with calcitriol before chemotherapy drugs; type: cell-based, human
Procedure: Then these pretreated cells were utilized to set up the cell based assay. […] Three commonly used chemotherapy drugs (doxorubicin, cisplatin and erlotinib) were selected to evaluate calcitriol treated cells. […] In these experiments, the commercial drugs were serially diluted, starting at a concentration 4-times higher than the final desired concentration for cell incubation. […] The assay was carried out according to the previously described method in order to provide consistency and allow direct comparison. The result was based upon measurement of the total number of viable cells. […] Thus, a topical application of calcitriol could be applied at the same time as the systemic delivery of the chemotherapy. A staged application is not required.

HEKa cells [5] = assay: Keratinocyte growth with calcitriol titration; type: cell-based, human; conditions: titration 0.008-2.0 μg/mL
Procedure: All experiments were conducted in 96-well plate format. Each well contained the same amount of HEKa cells in about 100 μL of media (usually between 2,000-5,000 cell/well). Calcitriol was dissolved in ethanol to make a stock solution. The stock solution was serially diluted 1:2 in the growth media, covering a range of between 4.0 μg/mL to about 15.5 ng/mL (9 test concentrations). […] All experiments were conducted in duplicates.

NIH-3T3 = assay: Cell growth / viability assay; type: cell-based
[6] = tested on: Sprague-Dawley or Long Evans rats; assay: Second CIA study, calcitriol 1, 2 or 3 μg/mL; type: in vivo, rat
Procedure: CIA was administered topically at concentrations of 1, 2, or 3 μg/mL on Days 5 to 10 followed by administration of various chemotherapeutic agents (etoposide; cyclophosphamide; doxorubicin and cyclophosphamide; cytosine beta-D arabinofurosamine; cytosine beta-D arabinofurosamine and doxorubicin; and paclitaxel).

BALB/c mice = conditions: cited from earlier work
[7] = 0.1 μg/mL calcitriol for two passages
[8] = 0.1 μg/mL calcitriol supplement

## C=C1/C(=C\C=C2/CCC[C@]3(C)[C@@H]([C@H](C)CCCC(C)(C)O)CC[C@@H]23)C[C@@H](O)C[C@@H]1O [Calcitriol, (1a.3B.5Z.7E)-9,10-secocholesta-5,7,10(19)-triene-1,3,25-triol]
NCI-ES-0808
  effect of calcitriol on cell growth: no significant growth promoting or growth inhibiting effects
  effect of calcitriol on cytotoxic effect of Doxorubicin: did not appear to appreciably alter
HEKa cells [1]; full cell: downregulated at 48 hours
  SLC1A3 mRNA regulation pattern: downregulated
HEKa cells [1]; full cell: upregulated at 16 hrs
  SLC1A1 mRNA regulation pattern: upregulated
HEKa cells [1]; full cell: upregulated at 48 hours
  KCNN4 mRNA regulation pattern: upregulated
HEKa cells [1]
  KCNB2 mRNA regulation pattern: upregulated at about 24 hours
HEKa cells [1]; listed as Vitamin D3
  KCNB2 mRNA regulation pattern: upregulated
HepG2
  effect of calcitriol on cytotoxic effect of Doxorubicin: did not appear to appreciably alter
HepG2; [7]
  response to doxorubicin, cisplatin, erlotinib after calcitriol exposure: did not alter
HepG2; [8]
  5-FU ED50 curve with vs without calcitriol: not significantly different
HepG2; high concentrations
  concentrations giving growth inhibition: > 0.5 µg/mL
HepG2; low concentrations
  concentrations giving growth stimulation: 0.05 to 0.25 µg/mL
Guinea pigs
  skin sensitization: not determined to be a sensitizer
SkBr-3
  effect of calcitriol on cell growth: no significant growth promoting or growth inhibiting effects
  effect of calcitriol on cytotoxic effect of Doxorubicin: did not appear to appreciably alter
PaCa2
  effect of calcitriol on cell growth: no significant growth promoting or growth inhibiting effects
  effect of calcitriol on cytotoxic effect of Doxorubicin: did not appear to appreciably alter
PaCa2; [7]
  response to doxorubicin, cisplatin, erlotinib after calcitriol exposure: did not alter
PaCa2; [8]
  5-FU ED50 curve with vs without calcitriol: not significantly different
HEKa cells [2]
  DNAJC6 mRNA regulation pattern: Downregulated
  HSF4 mRNA regulation pattern: Upregulated at 48 hours
  HSPA2 mRNA regulation pattern: Upregulated at 48 hours
  HSPB1 mRNA regulation pattern: Down regulated at 48 hours
[3]
  prevention of cyclophosphamide-induced alopecia: failed to demonstrate efficacy
  regrowth of pigmented hair shafts: significantly accelerated, enhanced, and quantitatively improved
HEKa cells [4]; 0.1 μg/mL calcitriol, two cell passages
  HEKa growth after prolonged calcitriol exposure: stopped growing
HEKa cells [4]; 0.1 μg/mL, doxorubicin, cisplatin, erlotinib
  chemoprotection, pre-treatment group vs simultaneous treatment group: nearly identical
HEKa cells [5]; lowest levels of calcitriol
  stimulation of HEKa cell growth: 10-20%
HEKa cells [5]
  calcitriol concentration at which cell growth is inhibited: ≥ 1.0 µg/mL
NIH-3T3
  effect of calcitriol on cell growth: no significant growth promoting or growth inhibiting effects
  effect of calcitriol on cytotoxic effect of Doxorubicin: did not appear to appreciably alter
[6]; 1 μg/mL
  extent of hair growth: hair growth was limited to the treated area
[6]; 3 μg/mL
  extent of hair growth: hair growth was also observed on the dorsal region
[6]; 1 to 3 μg/mL applied for 6 hours, all chemotherapeutic agents tested
  protection against CIA: 100%
[6]; chloroleukemia induced with MIAC51
  effect on cure rate with cyclophosphamide: did not affect the cure rate
[6]; topical, Days 5 to 10
  protection from CIA, 6-hour exposure: complete protection
  protection from CIA, 1.5 hour exposure: no protection
BALB/c mice; injected with EMT-6 murine breast tumor cells
  protective effect in tumor-bearing male mice: diminished
BALB/c mice; male mice, topical 5 days prior to i.p. cyclophosphamide
  degree of CIA: significantly reduced the degree of CIA in a dose-dependent manner
